# Source: patent US20110269811A1, “INHIBITORS OF SEMICARBAZIDE-SENSITIVE AMINE OXIDASE (SSAO) AND VAP-1 MEDIATED ADHESION USEFUL FOR TREATMENT AND PREVENTION OF DISEASES” (priority 2006, published 2011)
# Where a name gives a salt, the structure may show the parent alone.
# Key:
# Human SSAO = target: T1, Human SSAO (Homo sapiens, UniProt Q16853); experiment: In vitro inhibition of SSAO activity, human umbilical cord homogenate, 14C-benzylamine; format: biochemical; details: human umbilical cord homogenate; read-out: Human SSAO IC50
# T1 construct: rat lung or human umbilical cord homogenates were prepared by chopping the freshly removed tissue; from tissue; host or cells: human umbilical cord homogenate (25,000 g supernatant)
# T1 sequence (Q16853 1-763): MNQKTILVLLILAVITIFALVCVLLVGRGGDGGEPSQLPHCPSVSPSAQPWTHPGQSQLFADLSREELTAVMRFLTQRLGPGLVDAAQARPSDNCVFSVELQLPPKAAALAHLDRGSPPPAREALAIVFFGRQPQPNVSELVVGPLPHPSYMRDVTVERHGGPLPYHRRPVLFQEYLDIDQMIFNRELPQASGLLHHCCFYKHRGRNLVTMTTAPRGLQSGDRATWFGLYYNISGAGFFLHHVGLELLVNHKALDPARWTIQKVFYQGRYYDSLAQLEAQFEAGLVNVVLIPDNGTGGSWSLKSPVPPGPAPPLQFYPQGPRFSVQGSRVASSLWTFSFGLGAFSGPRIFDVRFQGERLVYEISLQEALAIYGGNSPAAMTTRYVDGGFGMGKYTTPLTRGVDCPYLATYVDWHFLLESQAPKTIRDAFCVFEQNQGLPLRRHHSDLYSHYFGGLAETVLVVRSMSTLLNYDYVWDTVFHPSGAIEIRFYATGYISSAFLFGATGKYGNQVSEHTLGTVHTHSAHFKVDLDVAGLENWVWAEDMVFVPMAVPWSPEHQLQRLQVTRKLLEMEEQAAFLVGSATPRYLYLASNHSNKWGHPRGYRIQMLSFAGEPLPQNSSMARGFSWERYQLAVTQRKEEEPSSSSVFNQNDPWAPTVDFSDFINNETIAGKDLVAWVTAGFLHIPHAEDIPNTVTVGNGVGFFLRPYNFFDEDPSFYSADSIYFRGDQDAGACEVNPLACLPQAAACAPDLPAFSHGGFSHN
# Procedure: SSAO activity was measured as described (Lizcano J M. Et al. (1998) Biochem J. 331:69). Briefly, rat lung or human umbilical cord homogenates were prepared by chopping the freshly removed tissue into small pieces and washing them thoroughly in PBS. The tissue was then homogenized 1:10 (w/v) for lung or 1:5 (w/v) for umbilical cord, in 10 mM potassium phosphate buffer (pH 7.8). Homogenates were then centrifuged at 1000 g at 4° C. for 10 min (lung) or 25,000 g for 30 min (umbilical cord); the supernatants were kept frozen until ready to use. Lung or umbilical cord homogenate was preincubated with clorgyline and pargyline at 1 μM to inhibit MAO-A and -B activity, respectively, and SSAO inhibitors were generally present at 1 nM-10 μM. The reaction was initiated by addition of 20 μM ^14C— benzylamine as substrate. The reaction was carried out at 37° C. in a final volume of 400 μL of 100 mM potassium phosphate buffer (pH 7.2) and stopped with 100 μl of 2M citric acid. Radioactively labeled products were extracted into toluene/ethyl acetate (1:1, v/v) containing 0.6% (w/v) 2,5-diphenyloxazole (PPO) before liquid scintillation counting.
# Recombinant human MAO-A = target: T2, Recombinant human MAO-A (Homo sapiens, UniProt P21397); experiment: MAO-A activity, colorimetric method, tyramine substrate; format: biochemical; details: for Specificity of SSAO on MAO-A: ratio of IC50 for MAO-A to IC50 for SSAO; for IC50: recombinant human MAO-A
# T2 construct: purchased BD Biosciences (MA, USA)
# T2 sequence (P21397 1-527): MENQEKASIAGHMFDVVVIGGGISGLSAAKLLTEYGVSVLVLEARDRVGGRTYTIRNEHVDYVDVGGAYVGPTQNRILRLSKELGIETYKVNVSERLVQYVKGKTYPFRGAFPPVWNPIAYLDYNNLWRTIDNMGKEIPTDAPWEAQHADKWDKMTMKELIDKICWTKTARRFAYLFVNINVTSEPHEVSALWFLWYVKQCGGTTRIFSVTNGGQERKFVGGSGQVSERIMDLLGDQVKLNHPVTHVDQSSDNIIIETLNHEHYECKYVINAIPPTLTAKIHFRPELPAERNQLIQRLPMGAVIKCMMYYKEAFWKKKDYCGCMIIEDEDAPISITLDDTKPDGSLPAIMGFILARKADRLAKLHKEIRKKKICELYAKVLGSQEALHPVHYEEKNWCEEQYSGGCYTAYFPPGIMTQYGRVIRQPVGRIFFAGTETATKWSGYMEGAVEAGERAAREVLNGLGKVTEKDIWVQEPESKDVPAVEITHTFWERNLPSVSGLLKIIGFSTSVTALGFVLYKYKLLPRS
# Procedure: The specificities of the different SSAO inhibitors was tested by determining their abilities to inhibit MAO-A and MAO-B activities in vitro. Recombinant human MAO-A and human MAO-B enzymes were obtained from BD Biosciences (MA, USA). MAO activity was measured using the colorimetric method essentially as described (Holt, A. et al. (1997) Anal. Biochem. 244: 384). A pre-determined amount of inhibitor diluted in 0.2M potassium phosphate buffer, pH 7.6, was added to each well, if required. The amount of inhibitor varied in each assay but was generally at a final concentration of between 1 nM and 1 mM. Controls lacked inhibitor. The following agents were then added to a final reaction volume of 200 μL in 0.2M potassium phosphate buffer, pH 7.6: 0.04 mg/ml of MAO-A or 0.07 mg/ml MAO-B enzyme, 15 μL of 10 mM tyramine substrate (for MAO-A), or 15 μL 100 mM benzylamine substrate (for MAO-B), and 50 μL of freshly made chromogenic solution. The chromogenic solution contained 750 μM vanillic acid (Sigma#V-2250), 400 μM 4-aminoantipyrine (Sigma #A-4328) and 12 U/mL horseradish peroxidase (Sigma #P-8250) in order to cause a change of 0.5 OD A490 nm/h. This was within the linear response range for the assay. The plates were incubated for 60 min at 37° C. The increase in absorbance, reflecting MAO activity, was measured at 490 nm using microplate spectrophotometer (Power Wave 40, Bio-Tek Inst.). Inhibition was presented as percent inhibition compared to control after correcting for background absorbance and IC50 values calculated using GraphPad Prism software. Clorgyline and pargyline (inhibitors of MAO-A and -B, respectively) at 1 μM, were added to some wells as positive controls for MAO inhibition. […] The compounds described in the present invention are therefore expected to have therapeutic utility in the treatment of diseases and conditions in which the activity of SSAO/VAP-1 plays a role, that is, in SSAO/VAP-1 mediated diseases and conditions.
SMILES,IC50 (Human SSAO) [µM],Specificity of SSAO on MAO-A (Recombinant human MAO-A),IC50 (Recombinant human MAO-A) [µM]
"Cl.NC/C(F)=C\Cc1ccccc1 [II-9-E, (E)-2-Fluoro-4-phenyl-2-butenylamine hydrochloride]",0.099,12120,1200
"CN(C)c1cccc(C/C=C(/F)CN)c1.Cl [II-11-E, (E)-2-Fluoro-4-(3-dimethylaminophenyl)-2-butenylamine hydrochloride]",0.11,2600,286
"CSc1cccc(C/C=C(/F)CN)c1.Cl [II-13-E, (E)-2-Fluoro-4-(3-methylthiophenyl)-2-butenylamine hydrochloride]",0.01,100000,
"CS(=O)(=O)c1cccc(C/C=C(/F)CN)c1.Cl [II-14-E, (E)-2-Fluoro-4-(3-methanesulfonylphenyl)-2-butenylamine hydrochloride]",0.07,14290,
"Cl.NC/C(F)=C\Cc1cccc(SC(F)(F)F)c1 [II-15-E, (E)-2-Fluoro-4-(3-trifluoromethylthiophenyl)-2-butenylamine hydrochloride]",0.023,>34780,> 800

# The next lines start with the values.
IC50 (Human SSAO) [µM],Specificity of SSAO on MAO-A (Recombinant human MAO-A),IC50 (Recombinant human MAO-A) [µM],SMILES
0.022,50000,1100,"COc1cccc(C/C=C(/F)CN)c1.Cl [II-8-E, (E)-2-Fluoro-4-(3-methoxyphenyl)-2-butenylamine hydrochloride]"
0.018,48330,870,"Cl.NC/C(F)=C\Cc1cccc(OC(F)(F)F)c1 [II-10-E, (E)-2-Fluoro-4-(3-trifluoromethoxyphenyl)-2-butenylamine hydrochloride]"
0.29,>3448,> 1000,"COc1cccc(C/C(C)=C(/F)CN)c1 [II-18-E, hydrochloride]"
0.16,>6250,> 1000,"COc1cccc(OC/C=C(/F)CN)c1 [II-19-E, (E)-2-fluoro-4-(3-methoxyphenoxy)but-2-en-1-amine]"
